The text below walks through data of US11319298B2 (Merck Sharp & Dohme Corp., priority 2016, dated 2022).

One may read the EC50 as the midpoint of the concentration-response curve. A high value points to a need for much substance.

Structures are written as SMILES.

The target of the assay is T1, human M4 muscarinic acetylcholine receptor (Homo sapiens, UniProt P08173).
T1 construct: expressed in transfected cells; host or cells: CHO-K1
T1 sequence (P08173 1-479): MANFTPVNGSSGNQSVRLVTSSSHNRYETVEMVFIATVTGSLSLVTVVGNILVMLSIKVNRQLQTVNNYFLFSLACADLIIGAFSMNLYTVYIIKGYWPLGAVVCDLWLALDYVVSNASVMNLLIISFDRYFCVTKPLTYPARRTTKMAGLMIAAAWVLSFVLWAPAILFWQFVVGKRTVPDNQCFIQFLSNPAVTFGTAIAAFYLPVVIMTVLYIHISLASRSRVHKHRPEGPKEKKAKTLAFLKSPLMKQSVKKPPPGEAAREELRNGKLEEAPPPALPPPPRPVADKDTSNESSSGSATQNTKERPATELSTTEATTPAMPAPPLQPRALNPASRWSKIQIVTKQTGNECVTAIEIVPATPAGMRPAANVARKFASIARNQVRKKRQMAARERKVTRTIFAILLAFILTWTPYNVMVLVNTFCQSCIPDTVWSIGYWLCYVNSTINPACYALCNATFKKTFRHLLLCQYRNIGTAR
Nature of the assay: human FLIPR-based M4 PAM assay, CHO-K1 cells stably transfected with human M4 receptor and chimeric G-protein Gαqi5. As to conditions: inflection point (IP) of dose response curve; acetylcholine added at 20% of maximum response; CHO-K1 human M4/Gαqi5, FLIPR Tetra. Format: cell-based. The method, boiled down:
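CHO-K1 cells were loaded with calcium dye at 37 °C for ~1 h. Fluorescence (ex 470–495/em 515–575 nm) was read for 4 min after test compound at increasing concentrations, then 3.5 min after acetylcholine at an EC20; sometimes a third addition at EC70 followed. The value is the inflection point of a 4-parameter logistic fit.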
`COc1ccc(OC2CCN(c3nnc(C(=O)N[C@H]4CCc5cc(F)ccc5C4)cc3C)CC2)cn1` [Example 184A, (S)-N-(6-fluoro-1,2,3,4-tetrahydronaphthalen-2-yl)-6-{4-[(6-methoxypyridin-3-yl)oxy]piperidin-1-yl}-5-methylpyridazine-3-carboxamide] showed a 50% effective concentration (EC50) of 427 nM.

`COc1ccc(OC2CCN(c3nnc(C(=O)N[C@@H]4CCc5cc(F)ccc5C4)cc3C)CC2)cn1` [Example 184B, (R)-N-(6-fluoro-1,2,3,4-tetrahydronaphthalen-2-yl)-6-{4-[(6-methoxypyridin-3-yl)oxy]piperidin-1-yl}-5-methylpyridazine-3-carboxamide] yielded a concentration for a half-maximal effect (EC50) of 1010 nM.

Compound `COc1ccc(OC2CCN(c3nnc(C(=O)NC4(C)CCCC4)cc3C)CC2)cn1` [Example 185, 6-{4-[(6-methoxypyridin-3-yl)oxy]piperidin-1-yl}-5-methyl-N-(1-methylcyclopentyl)pyridazine-3-carboxamide] came in with an EC50 of 1040 nM.

Regarding `COc1ccc(OC2CCN(c3nnc(C(=O)NCc4ccc(OC)c(C(F)(F)F)c4)cc3C)CC2)cn1` [Example 186, 6-{4-[(6-methoxypyridin-3-yl)oxy]piperidin-1-yl}-N-[4-methoxy-3-(trifluoromethyl)benzyl]-5-methylpyridazine-3-carboxamide], the concentration for a half-maximal effect (EC50) came to 1250 nM.

In turn, `COc1ccc(OC2CCN(c3nnc(C(=O)N[C@@H]4CCCc5ccccc54)cc3C)CC2)cn1` [Example 187, 6-{4-[(6-methoxypyridin-3-yl)oxy]piperidin-1-yl}-5-methyl-N-[(1R)-1,2,3,4-tetrahydronaphthalen-1-yl]pyridazine-3-carboxamide] registered an EC50 of 1330 nM.

Turning to `COc1ccc([C@@H](C)NC(=O)c2cc(C)c(N3CCC(Oc4ccc(OC)nc4)CC3)nn2)cc1` [Example 188, N-[(1R)-1-(4-methoxyphenyl)ethyl]-6-{4-[(6-methoxypyridin-3-yl)oxy]piperidin-1-yl}-5-methylpyridazine-3-carboxamide], the EC50 worked out at 1510 nM.

`CNC(=O)c1cc(C)c(N2CCC(Oc3ccc(OC)nc3)CC2)nc1C` [Example 189, 6-{4-[(6-methoxypyridin-3-yl)oxy]piperidin-1-yl}-N,2,5-trimethylpyridine-3-carboxamide]: the EC50 was 1870 nM.

Turning to `COc1ccc(OC2CCN(c3nnc(C(=O)Nc4ccc(CC(F)(F)F)cc4)cc3C)CC2)cn1` [Example 190, 6-{4-[(6-methoxypyridin-3-yl)oxy]piperidin-1-yl}-5-methyl-N-[4-(2,2,2-trifluoroethyl)phenyl]pyridazine-3-carboxamide], a half-maximal effect (EC50) was put at 2000 nM.

With `COc1ccc(OC2CCN(c3nc(C)c(C(N)=O)cc3C)CC2)cn1` [Example 191, 6-{4-[(6-methoxypyridin-3-yl)oxy]piperidin-1-yl}-2,5-dimethypyridine-3-carboxamide], a half-maximal response (EC50) required 2960 nM.

The compound `Cc1cc(C(=O)NCc2cnsc2)nnc1N1CCC(Oc2cccc(C#N)c2)CC1` [Example 192, 6-[4-(3-cyanophenoxy)piperidin-1-yl]-N-(isothiazol-4-ylmethyl)-5-methypyridazine-3-carboxamide] returned an EC50 of 22 nM.

The compound `COc1ccc(OC2CCN(c3nnc(C(=O)NCc4ccccc4)cc3C)CC2)cn1` [Example 193, N-benzyl-6-{4-[(6-methoxypyridin-3-yl)oxy]piperidin-1-yl}-5-methylpyridazine-3-carboxamide] had a concentration for a half-maximal effect (EC50) of 35 nM.

`Cc1cc(C(=O)NCc2ccccc2)nnc1N1CCC(Oc2cccc(C#N)c2)CC1` [Example 194, N-benzyl-6-[4-(3-cyanophenoxy)piperidin-1-yl]-5-methylpyridazine-3-carboxamide] had an EC50 of 51 nM.

With `COc1ccc(OC2CCN(c3nnc(C(=O)NCc4ccccc4Cl)cc3C)CC2)cn1` [Example 195, N-(2-chlorobenzyl)-6-{4-[(6-methoxypyridin-3-yl)oxy]piperidin-1-yl}-5-methylpyridazine-3-carboxamide], a half-maximal response (EC50) required 57 nM.

`COc1ccc(OC2CCN(c3nnc(C(=O)NCCc4ccccc4)cc3C)CC2)cn1` [Example 196, 6-{4-[(6-methoxypyridin-3-yl)oxy]piperidin-1-yl}-5-methyl-N-(2-phenylethyl)pyridazine-3-carboxamide] showed an EC50 of 74 nM.

Turning to `COc1ccc(OC2CCN(c3nnc(C(=O)NCCc4ccccc4Cl)cc3C)CC2)cn1` [Example 197, N-[2-(2-chlorophenyl)ethyl]-6-{4-[(6-methoxypyridin-3-yl)oxy]piperidin-1-yl}-5-methylpyridazine-3-carboxamide], the response was half-maximal at 91 nM (EC50).

In the case of `Cc1cc(C(=O)NCc2ccccc2Cl)nnc1N1CCC(Oc2cccc(C#N)c2)CC1` [Example 199, N-(2-chlorobenzyl)-6-[4-(3-cyanophenoxy)piperidin-1-yl]-5-methylpyridazine-3-carboxamide], a half-maximal effect (EC50) was put at 118 nM.

`COc1ccc(OC2CCN(c3nnc(C(=O)NC4CCCc5ccccc54)cc3C)CC2)cn1` (stereo not drawn) [Example 200, 6-{4-[(6-methoxypyridin-3-yl)oxy]piperidin-1-yl}-5-methyl-N-(1,2,3,4-tetrahydronaphthalen-1-yl)pyridazine-3-carboxamide] yielded a 50% effective concentration (EC50) of 218 nM.

On to `Cc1cc(C(=O)NC2CCc3ccccc3C2)nnc1N1CCC(Oc2cccc(C#N)c2)CC1` (stereo not drawn) [Example 201, 6-[4-(3-cyanophenoxy)piperidin-1-yl]-5-methyl-N-(1,2,3,4-tetrahydronaphthalen-2-yl)pyridazine-3-carboxamide], for which the EC50 turned out to be 272 nM.

`Cc1cc(C(=O)NC2CCCc3ccccc32)nnc1N1CCC(Oc2cccc(C#N)c2)CC1` (stereo not drawn) [Example 202, 6-[4-(3-cyanophenoxy)piperidin-1-yl]-5-methyl-N-(1,2,3,4-tetrahydronaphthalne-1-yl)pyridazine-3-carboxamide] returned a half-maximal effective concentration (EC50) of 473 nM.

Compound `COc1ccc(OC2CCN(c3nnc(C(=O)N4CCc5snc(-c6cccnc6)c5C4)cc3C)CC2)cn1` [Example 203, 5-[(6-{4-[(6-methoxypyridin-3-yl)oxy]piperidin-1-yl}-5-methylpyridazin-3-yl)carbonyl]-3-pyridin-3-yl-4,5,6,7-tetrahydroisothiazolo[4,5-c]pyridine] came in with an EC50 of 504 nM.

`Cc1cc(C(=O)N2CCc3snc(-c4cccnc4)c3C2)nnc1N1CCC(Oc2cccc(C#N)c2)CC1` [Example 204, 3-[(1-{4-methyl-6-[(3-pyridin-3-yl-6,7-dihydroisothiazolo[4,5-c]pyridin-5(4H)-yl)carbonyl]pyridazin-3-yl}piperidin-4-yl)oxy]benzonitrile] returned a 50% effective concentration (EC50) of 1150 nM.

As to `Cc1cc(C(=O)NCc2ccncc2)nnc1N1CCC(Oc2cccc(C#N)c2)CC1` [Example 204A, 6-(4-(3-cyanophenoxy)piperidin-1-yl)-5-methyl-N-(pyridin-4-ylmethyl)pyridazine-3-carboxamide], it took 99 nM to reach a half-maximal effect (EC50).

Take `CCc1cc(C(=O)NCc2ccncc2)nnc1N1CCC(Oc2ccc(OC)nc2)CC1` [Example 205, 5-Ethyl-6-(4-((6-methoxypyridin-3-yl)oxy)piperidin-1-yl)-N-(pyridin-4-ylmethyl)pyridazine-3-carboxamide]: a half-maximal effect (EC50) was put at 97 nM.

`COc1ccc(OC2CCN(c3nc(C(N)=O)nc(Cl)c3C)CC2)cn1` [Example 206, 4-chloro-6-(4-((6-methoxypyridin-3-yl)oxy)piperidin-1-yl)-5-methylpyrimidine-2-carboxamide] had an EC50 of 168 nM.

For the compound `COc1ccc(OC2CCN(c3nc(C(=O)NCc4ccncc4)nc(Cl)c3C)CC2)cn1` [Example 207, 4-chloro-6-(4-((6-methoxypyridin-3-yl)oxy)piperidin-1-yl)-5-methyl-N-(pyridin-4-ylmethyl)pyrimidine-2-carboxamide], the EC50 was determined as 224 nM.

With `COc1ccc(OC2CCN(c3nc(C(=O)NCCc4ccncc4)nc(Cl)c3C)CC2)cn1` [Example 208, 4-chloro-6-(4-((6-methoxypyridin-3-yl)oxy)piperidin-1-yl)-5-methyl-N-(2-(pyridin-4-yl)ethyl)pyrimidine-2-carboxamide], the half-maximal effective concentration (EC50) amounted to 491 nM.

Compound `COc1ccc(OC2CCN(c3nc(C(=O)NNC(C)C)nc(Cl)c3C)CC2)cn1` [Example 209, 4-chloro-N′-isopropyl-6-(4-((6-methoxypyridin-3-yl)oxy)piperidin-1-yl)-5-methylpyrimidine-2-carbohydrazide] came in with a 50% effective concentration (EC50) of 533 nM.

As for `COc1ccc(OC2CCN(c3nc(C(=O)NC45CC(C4)C5)nc(Cl)c3C)CC2)cn1` [Example 210, N-(bicyclo[1.1.1]pentan-1-yl)-4-chloro-6-(4-((6-methoxypyridin-3-yl)oxy)piperidin-1-yl)-5-methylpyrimidine-2-carboxamide], the midpoint of the response, the EC50, lay at 592 nM.

`COc1ccc(OC2CCN(c3nc(C(=O)NCc4ccncc4Cl)nc(Cl)c3C)CC2)cn1` [Example 211, 4-chloro-N-((3-chloropyridin-4-yl)methyl)-6-(4-((6-methoxypyridin-3-yl)oxy)piperidin-1-yl)-5-methylpyrimidine-2-carboxamide]: a half-maximal effect (EC50) was put at 635 nM.

The compound `COc1ccc(OC2CCN(c3nc(C(=O)NC(C)(C)C)nc(Cl)c3C)CC2)cn1` [Example 212] showed a 50% effective concentration (EC50) of 705 nM.
